Measured values published in patent US9981969B2, “Imidazole derivatives and methods of use thereof for improving the pharmacokinetics of a drug” (MERCK SHARP & DOHME CORP., priority 2013, dated 2018).

Assays:
[1] = molecular target: T1, CYP3A4 (Homo sapiens, UniProt P08684); assay: Cocktail assay for CYPs in human liver microsomes, midazolam 1′-hydroxylation (3A4); type: biochemical; conditions: 2 μM midazolam, 10 min at 37° C.
T1 construct: 0.1 mg/mL protein human liver microsomes (BD Gentest); tissue BD Gentest; host or cells: human liver microsomes
T1 sequence (P08684 whole entry): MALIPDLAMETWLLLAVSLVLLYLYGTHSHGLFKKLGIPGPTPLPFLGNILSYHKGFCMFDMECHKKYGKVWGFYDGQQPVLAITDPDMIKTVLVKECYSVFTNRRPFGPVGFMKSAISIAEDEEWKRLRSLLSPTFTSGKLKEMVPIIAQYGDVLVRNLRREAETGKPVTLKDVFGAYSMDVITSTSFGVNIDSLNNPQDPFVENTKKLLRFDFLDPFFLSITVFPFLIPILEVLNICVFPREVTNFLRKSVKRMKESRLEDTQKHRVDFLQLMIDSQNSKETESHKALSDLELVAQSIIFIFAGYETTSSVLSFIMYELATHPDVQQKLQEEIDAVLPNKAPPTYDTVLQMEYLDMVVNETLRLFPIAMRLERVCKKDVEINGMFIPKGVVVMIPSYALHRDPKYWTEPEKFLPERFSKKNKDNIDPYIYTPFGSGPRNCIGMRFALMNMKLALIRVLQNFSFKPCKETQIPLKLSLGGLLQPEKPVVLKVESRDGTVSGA
Method: (§1) This assay was performed in a standard 96-well plate design. IC50 values were calculated from the percent inhibition observed for each test compound at 6 concentrations (for example, 0.0032, 0.016, 0.08, 0.4, 2 and 10 μM). The incubation substrate mix contains 10 μM phenacetin (1A2), 5 μM diclofenac (2C9), 30 μM mephenytoin (2C19), 5 μM dextromethorphan (2D6) and 2 μM midazolam (3A4), 0.1 mg/mL protein human liver microsomes (BD Gentest), 1 mM NAPDH, 3.3 mM MgCl2 and 100 mM potassium phosphate buffer (pH 7.4). The production of the metabolite of each probe substrate was determined after incubation for 10 min at 37° C. Quantitation of the metabolite peak area ratio against an internal standard (tolbutamide) was determined by LC/MS/MS analysis following acetonitrile treatment of the incubations.
(§2) Samples were analyzed in the MRM mode with a SCIEX API-4000 mass spectrometer (Applied Biosystems, Foster City, Calif.), with a Shimadzu LC-20 AD pump (Shimadzu corporation, Kyoto, JP) and a CTC PAL autosampler (Agilent Technologies, Switzerland). A Phenomenex, Luna, 5 μm, 100A, 2.00×30 mm HPLC column was used for the separation. The mobile phases were: (A) 0.1% formic acid in water and (B) 0.1% formic acid in acetonitrile. The binary gradient was as follows. AutoSampler: CTC PAL
(§3) The peak area ratio of the analyte to the internal standard was used to quantify the metabolite. The values of peak area ratios in the presence of test compound were compared to those of maximum or minimum controls and were expressed as % inhibition by interpolating between the maximum and minimum peak area ratios. Incubations with no inhibitor were defined as the maxima. The following equation was used to calculate the % inhibition: [1−[(X−Low control)/(High control−Low control)]]*100 For the IC50 calculation, SigmaPlot was used to plot the mean % inhibition versus the test compound concentrations and for non-linear regression analysis of the data. Depending on the range of data points defining the inhibition curve, the data may have been fit to the 4-parameter logistic equation.

[2] = molecular target: T2, CYP1A2 (Homo sapiens, UniProt P05177); assay: Cocktail assay for CYPs in human liver microsomes, phenacetin O-deethylation (1A2); type: biochemical; conditions: 10 μM phenacetin, 10 min at 37° C.
T2 construct: 0.1 mg/mL protein human liver microsomes (BD Gentest); tissue BD Gentest; host or cells: human liver microsomes
T2 sequence (P05177 1-516): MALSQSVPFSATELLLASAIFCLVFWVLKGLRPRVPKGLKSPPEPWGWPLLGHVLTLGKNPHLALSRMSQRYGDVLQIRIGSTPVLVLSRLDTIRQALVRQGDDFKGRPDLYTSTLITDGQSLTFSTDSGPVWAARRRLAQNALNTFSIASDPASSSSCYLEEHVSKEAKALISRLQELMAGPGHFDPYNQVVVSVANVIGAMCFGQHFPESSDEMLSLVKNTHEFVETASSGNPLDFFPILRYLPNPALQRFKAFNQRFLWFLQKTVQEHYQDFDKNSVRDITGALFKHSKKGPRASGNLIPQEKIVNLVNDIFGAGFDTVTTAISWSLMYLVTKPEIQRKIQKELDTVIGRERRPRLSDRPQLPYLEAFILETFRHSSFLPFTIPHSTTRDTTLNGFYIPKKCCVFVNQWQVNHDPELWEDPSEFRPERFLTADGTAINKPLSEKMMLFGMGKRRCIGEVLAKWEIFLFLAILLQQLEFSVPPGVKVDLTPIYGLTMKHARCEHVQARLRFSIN
Method: as §1, §2, §3

[3] = molecular target: T3, CYP2C9 (Homo sapiens, UniProt P11712); assay: Cocktail assay for CYPs in human liver microsomes, diclofenac 4′-hydroxylation (2C9); type: biochemical; conditions: 5 μM diclofenac, 10 min at 37° C.
T3 construct: 0.1 mg/mL protein human liver microsomes (BD Gentest); tissue BD Gentest; host or cells: human liver microsomes
T3 sequence (P11712 whole entry): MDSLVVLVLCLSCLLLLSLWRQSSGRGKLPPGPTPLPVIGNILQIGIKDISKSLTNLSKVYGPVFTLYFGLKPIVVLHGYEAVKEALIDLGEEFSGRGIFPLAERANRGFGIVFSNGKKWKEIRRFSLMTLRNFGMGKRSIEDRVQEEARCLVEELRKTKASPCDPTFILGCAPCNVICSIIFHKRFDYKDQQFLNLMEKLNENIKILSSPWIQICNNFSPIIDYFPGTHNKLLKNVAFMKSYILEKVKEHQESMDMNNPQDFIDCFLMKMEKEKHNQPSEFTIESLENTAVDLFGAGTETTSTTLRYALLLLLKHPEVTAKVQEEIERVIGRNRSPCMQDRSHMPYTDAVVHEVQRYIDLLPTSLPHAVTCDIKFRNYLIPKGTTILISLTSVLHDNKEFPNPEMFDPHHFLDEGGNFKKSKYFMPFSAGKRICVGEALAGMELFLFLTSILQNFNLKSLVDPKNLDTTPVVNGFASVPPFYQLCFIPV
Method: as §1, §2, §3

[4] = molecular target: T4, CYP2C19 (Homo sapiens, UniProt P33261); assay: Cocktail assay for CYPs in human liver microsomes, mephenytoin 4′-hydroxylation (2C19); type: biochemical; conditions: 30 μM mephenytoin, 10 min at 37° C.
T4 construct: 0.1 mg/mL protein human liver microsomes (BD Gentest); tissue BD Gentest; host or cells: human liver microsomes
T4 sequence (P33261 whole entry): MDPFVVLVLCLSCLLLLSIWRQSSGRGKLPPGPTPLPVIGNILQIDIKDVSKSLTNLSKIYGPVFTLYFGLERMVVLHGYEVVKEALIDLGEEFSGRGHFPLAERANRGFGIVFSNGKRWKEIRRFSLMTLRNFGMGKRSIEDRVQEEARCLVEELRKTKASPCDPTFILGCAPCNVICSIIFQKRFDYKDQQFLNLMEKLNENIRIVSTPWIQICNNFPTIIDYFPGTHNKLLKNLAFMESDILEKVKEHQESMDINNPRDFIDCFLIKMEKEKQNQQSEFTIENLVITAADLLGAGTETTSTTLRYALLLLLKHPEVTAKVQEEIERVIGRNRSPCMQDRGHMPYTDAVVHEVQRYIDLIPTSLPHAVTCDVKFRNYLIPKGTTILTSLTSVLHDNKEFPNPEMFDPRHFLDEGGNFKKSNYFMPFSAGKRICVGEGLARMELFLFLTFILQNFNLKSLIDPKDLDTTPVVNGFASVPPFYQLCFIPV
Method: as §1, §2, §3

[5] = molecular target: T5, CYP2D6 (Homo sapiens, UniProt P10635); assay: Cocktail assay for CYPs in human liver microsomes, dextromethorphan O-demethylation (2D6); type: biochemical; conditions: 5 μM dextromethorphan, 10 min at 37° C.
T5 construct: 0.1 mg/mL protein human liver microsomes (BD Gentest); tissue BD Gentest; host or cells: human liver microsomes
T5 sequence (P10635 whole entry): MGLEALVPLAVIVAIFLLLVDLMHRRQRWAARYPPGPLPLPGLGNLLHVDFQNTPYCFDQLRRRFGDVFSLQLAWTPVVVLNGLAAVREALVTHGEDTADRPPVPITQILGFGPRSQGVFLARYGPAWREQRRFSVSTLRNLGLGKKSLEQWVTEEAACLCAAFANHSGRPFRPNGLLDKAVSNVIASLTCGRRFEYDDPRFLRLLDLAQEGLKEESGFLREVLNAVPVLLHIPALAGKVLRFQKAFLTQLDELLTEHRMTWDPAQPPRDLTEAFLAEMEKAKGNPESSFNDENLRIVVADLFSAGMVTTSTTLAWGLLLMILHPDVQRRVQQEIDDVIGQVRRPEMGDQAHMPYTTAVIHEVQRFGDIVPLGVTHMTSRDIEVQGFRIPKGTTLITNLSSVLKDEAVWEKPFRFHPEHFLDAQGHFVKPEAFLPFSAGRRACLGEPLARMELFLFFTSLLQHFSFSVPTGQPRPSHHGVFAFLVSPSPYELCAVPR
Method: as §1, §2, §3

[6] = molecular target: T6, human CYP11B1 (Homo sapiens, UniProt P15538); assay: IC50 vs CYP11B1 by measurement of cortisol synthesis in V79 cells; type: cell-based; conditions: V79 cells expressing human CYP11B1, 1500 nM RSS, cortisol HTRF
T6 construct: expressed in transfected cells
T6 sequence (P15538 25-503): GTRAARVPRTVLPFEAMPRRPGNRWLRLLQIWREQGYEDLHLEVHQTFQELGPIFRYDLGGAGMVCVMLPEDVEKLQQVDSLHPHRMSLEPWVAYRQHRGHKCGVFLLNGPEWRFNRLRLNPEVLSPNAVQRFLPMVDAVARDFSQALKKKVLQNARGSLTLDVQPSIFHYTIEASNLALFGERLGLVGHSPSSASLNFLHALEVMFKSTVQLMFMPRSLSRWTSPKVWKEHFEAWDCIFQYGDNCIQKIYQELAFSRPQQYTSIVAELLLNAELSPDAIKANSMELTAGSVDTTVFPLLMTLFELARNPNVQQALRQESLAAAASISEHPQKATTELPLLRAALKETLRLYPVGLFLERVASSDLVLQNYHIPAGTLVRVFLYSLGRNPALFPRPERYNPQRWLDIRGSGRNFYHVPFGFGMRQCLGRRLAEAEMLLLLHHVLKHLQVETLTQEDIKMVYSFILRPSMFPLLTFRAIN
Method: (§4) This assay was performed in a standard 384-well plate design using cultured V79 cells stably expressing human CYP11B1 or human CYP11B2. Test compounds at 10 concentrations (for example, 10000, 3333.3, 1111.1, 370.4, 123.5, 41.2, 13.7, 4.6, 1.5 and 0.5 nM) were added in 384-well plate after the cell-seeding procedure. The incubation substrate contains 1500 nM RSS for CYP11B1 assay/750 nM DOC for CYP11B2 assay. The Cortisol/Aldosterone production of cell culture supernatant was determined by Cortisol/Aldosterone HTRF kit after for about 15 hours incubation at RT (protect from light). IC50 (nM) values were calculated from the percent inhibition observed for each test compound at 10 concentrations.
(§5) The assay plate was read using Envision (Perkin Elmer, Waltham, Mass.) at 665 nm and 590 nm (using Filter Barcode of 217#, 205#; Mirror Barcode of 446#).
(§6) Data are analyzed using Assay Data Analyzer. All ratio data (665 nm/590 nm) are back calculated according to the standard curve, resulting in Cortisol/Aldosterone concentrations. IC50 (nM) values are reported as the Inflection Point (IP) of a four parameter fit of the titration data.
(§7) The following equation was used to calculate the % inhibition: % Activity=100×{1−(Sample_back calculated Cortisol/Aldosterone concentration−LC_back calculated Cortisol/Aldosterone concentration)/(HC_back calculated Cortisol/Aldosterone concentration−LC_back calculated Cortisol/Aldosterone concentration)} Curve Fitting: Four Parameter Logistic: […]

[7] = molecular target: T7, human CYP11B2 (Homo sapiens, UniProt P19099); assay: IC50 vs CYP11B2 by measurement of aldosterone synthesis in V79 cells; type: cell-based; conditions: V79 cells expressing human CYP11B2, 750 nM DOC, aldosterone HTRF
T7 construct: expressed in transfected cells
T7 sequence (P19099 25-503): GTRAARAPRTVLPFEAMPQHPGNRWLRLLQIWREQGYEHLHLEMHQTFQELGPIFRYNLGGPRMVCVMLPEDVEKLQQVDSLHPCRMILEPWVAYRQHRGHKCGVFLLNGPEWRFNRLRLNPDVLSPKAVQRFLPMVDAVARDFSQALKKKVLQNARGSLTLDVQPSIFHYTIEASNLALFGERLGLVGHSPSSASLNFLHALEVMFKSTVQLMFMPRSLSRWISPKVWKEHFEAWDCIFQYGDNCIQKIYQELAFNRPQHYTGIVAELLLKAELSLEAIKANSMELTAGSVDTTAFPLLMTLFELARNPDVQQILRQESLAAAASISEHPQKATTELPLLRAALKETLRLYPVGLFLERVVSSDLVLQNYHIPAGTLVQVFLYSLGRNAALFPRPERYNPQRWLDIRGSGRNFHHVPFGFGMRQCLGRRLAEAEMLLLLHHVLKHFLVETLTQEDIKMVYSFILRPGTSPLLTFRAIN
Method: as §4, §5, §6, §7

SMILES	IC50 [1]	IC50 [2]	IC50 [3]	IC50 [4]	IC50 [5]	IC50 [6]	IC50 [7]
C[C@@H](c1ccccc1-c1ccc(F)cc1)n1cncc1C(=O)N1CC[C@@H](N2CCOCC2)[C@@H](F)C1 [Compound 29]	0.0063 µM	> 10 µM	> 10 µM	> 10 µM	6.22 µM	22 µM	> 50 µM
C[C@@H](c1ccccc1-c1ccc(F)cc1)n1cncc1C(=O)N1CC[C@@H](N2CCNC(=O)C2)[C@@H](F)C1 [Compound 30]	0.0058 µM	> 10 µM	> 10 µM	> 10 µM	> 10 µM	> 50 µM	41.5 µM
C[C@H]1CN(C(=O)c2cncn2[C@@H](C)c2ccccc2-c2ccc(F)cc2)CC[C@H]1N1CCNC(=O)C1 [Compound 31]	0.0097 µM	> 10 µM	> 10 µM	> 10 µM	9.6 µM	28.1 µM	> 50 µM
C[C@H]1CN(C(=O)c2cncn2[C@@H](C)c2ccccc2-c2ccc(F)cc2)CC[C@H]1N1CC[C@@H](O)C1 [Compound 32]	0.0042 µM	> 10 µM	> 10 µM	> 10 µM	8.38 µM	22.5 µM	> 50 µM
CO[C@H]1CN(C(=O)c2cncn2[C@@H](C)c2ccccc2-c2ccc(F)cc2)CC[C@@H]1N1CCOC1=O [Compound 33]	0.0091 µM	> 10 µM	> 10 µM	> 10 µM	7.36 µM	> 50 µM	23.6 µM
C[C@@H](c1ccccc1-c1ccccc1)n1cncc1C(=O)N1CCC2NCCO[C@@H]2C1 (stereo partly shown) [Compound 34]	0.0068 µM	> 10 µM	> 10 µM	> 10 µM	8.05 µM	21.2 µM	> 50 µM
C[C@@H](c1ccccc1-c1ccc(F)cc1F)n1cncc1C(=O)N1CCC2NCCO[C@@H]2C1 (stereo partly shown) [Compound 38]	0.0089 µM	> 10 µM	> 10 µM	> 10 µM	> 10 µM	25.3 µM	> 50 µM

Continued, values first:

IC50 [1]	IC50 [2]	IC50 [3]	IC50 [4]	IC50 [5]	IC50 [6]	IC50 [7]	SMILES
0.0055 µM	> 10 µM	> 10 µM	> 10 µM	9.1 µM	20.4 µM	25.8 µM	COCc1ccccc1-c1ccccc1[C@H](C)n1cncc1C(=O)N1CCC2NCCO[C@@H]2C1 (stereo partly shown) [Compound 35]
0.0096 µM	> 10 µM	> 10 µM	> 10 µM	> 10 µM	32.7 µM	> 50 µM	C[C@@H](c1ccccc1-c1cccc(F)c1)n1cncc1C(=O)N1CCC2NCCO[C@@H]2C1 (stereo partly shown) [Compound 36]
0.0097 µM	> 10 µM	> 10 µM	> 10 µM	> 10 µM	19.7 µM	> 50 µM	C[C@@H](c1ccccc1-c1cc(F)cc(F)c1)n1cncc1C(=O)N1CCC2NCCO[C@@H]2C1 (stereo partly shown) [Compound 37]
0.0048 µM	> 10 µM	> 10 µM	> 10 µM	9.45 µM	14.6 µM	> 50 µM	C[C@@H](c1ccccc1-c1ccc(F)c(F)c1F)n1cncc1C(=O)N1CCC2NCCO[C@@H]2C1 (stereo partly shown) [Compound 39]
0.0095 µM	> 10 µM	> 10 µM	> 10 µM	> 10 µM	33.3 µM	25.9 µM	CCOc1ncccc1-c1ccccc1[C@H](C)n1cncc1C(=O)N1CCC2NCCO[C@@H]2C1 (stereo partly shown) [Compound 40]
0.0071 µM	> 10 µM	> 10 µM	> 10 µM	7.48 µM	42.2 µM	> 50 µM	C[C@@H](c1ccccc1-c1ccc(Cl)nc1)n1cncc1C(=O)N1CCC2NCCO[C@@H]2C1 (stereo partly shown) [Compound 41]
0.0047 µM	> 10 µM	> 10 µM	> 10 µM	> 10 µM	5.62 µM	> 50 µM	C[C@@H](c1ccccc1-c1ccccc1OC(F)(F)F)n1cncc1C(=O)N1CCC2NCCO[C@@H]2C1 (stereo partly shown) [Compound 42]
0.0066 µM	> 10 µM	> 10 µM	> 10 µM	7.09 µM	30.3 µM	> 50 µM	C[C@@H](c1ccccc1-c1cccc2c1OCC2)n1cncc1C(=O)N1CCC2NCCO[C@@H]2C1 (stereo partly shown) [Compound 43]
0.005 µM	> 10 µM	> 10 µM	> 10 µM	5.86 µM	12.2 µM	> 50 µM	COc1ccccc1-c1ccccc1[C@H](C)n1cncc1C(=O)N1CCC2NCCO[C@@H]2C1 (stereo partly shown) [Compound 44]
